Results taken from patent US10399945B2, “Tetrahydronaphthyl urea derivative” (MOCHIDA PHARMACEUTICAL CO., LTD., priority 2017, dated 2019).

Target: Human TrkA Protein (Homo sapiens (Human), UniProt P04629)
Test: Evaluation of Binding Activity for Human TrkA Protein (TrkA LanthaScreen Eu Kinase Binding Assay)
Conditions: TrkA enzyme, Kinase Tracer 236, TR-FRET, 60 minutes at room temperature
Procedure: (Pharmacological Experimental Example 1): Evaluation of Binding Activity for Human TrkA Protein
Measurement was carried out using TrkA LanthaScreen (registered trademark) Eu Kinase Binding Assay (ThermoFisher SCIENTIFIC). To a 384 well plate (Corning), 2.5 μL of the test compound having various concentrations and diluted with Kinase buffer (ThermoFisher SCIENTIFIC) and 2.5 μL of 15 nM TrkA enzyme (ThermoFisher SCIENTIFIC) were added. Moreover, […] Eu-anti-His Tag antibody (ThermoFisher SCIENTIFIC) and 5 μL of 30 nM Kinase (registered trademark) Tracer 236 (ThermoFisher SCIENTIFIC) were added, followed by reaction at room temperature for 60 minutes. After the reaction, the fluorescence intensity of Europium (Emission wavelength 615 nm) and TR-FRET (Emission wavelength 665 nm) with an excitation wavelength of 340 nm were measured with EnVision 2100 (PerkinElmer) to calculate the fluorescence ratio as the amount of the test compound and the TrkA enzyme bonded. The inhibitory activity (IC50 value) of each test compound was calculated with the fluorescence ratio of the well to which a solvent was added instead of the test compound being 0% and the fluorescence ratio of the well without addition of the TrkA protein being 100%.
In Table 1, […] mean Compounds 1 to 62 synthesized in accordance with Examples 1 to 62 described later.

Human TrkA Protein, sequence (P04629 33-796): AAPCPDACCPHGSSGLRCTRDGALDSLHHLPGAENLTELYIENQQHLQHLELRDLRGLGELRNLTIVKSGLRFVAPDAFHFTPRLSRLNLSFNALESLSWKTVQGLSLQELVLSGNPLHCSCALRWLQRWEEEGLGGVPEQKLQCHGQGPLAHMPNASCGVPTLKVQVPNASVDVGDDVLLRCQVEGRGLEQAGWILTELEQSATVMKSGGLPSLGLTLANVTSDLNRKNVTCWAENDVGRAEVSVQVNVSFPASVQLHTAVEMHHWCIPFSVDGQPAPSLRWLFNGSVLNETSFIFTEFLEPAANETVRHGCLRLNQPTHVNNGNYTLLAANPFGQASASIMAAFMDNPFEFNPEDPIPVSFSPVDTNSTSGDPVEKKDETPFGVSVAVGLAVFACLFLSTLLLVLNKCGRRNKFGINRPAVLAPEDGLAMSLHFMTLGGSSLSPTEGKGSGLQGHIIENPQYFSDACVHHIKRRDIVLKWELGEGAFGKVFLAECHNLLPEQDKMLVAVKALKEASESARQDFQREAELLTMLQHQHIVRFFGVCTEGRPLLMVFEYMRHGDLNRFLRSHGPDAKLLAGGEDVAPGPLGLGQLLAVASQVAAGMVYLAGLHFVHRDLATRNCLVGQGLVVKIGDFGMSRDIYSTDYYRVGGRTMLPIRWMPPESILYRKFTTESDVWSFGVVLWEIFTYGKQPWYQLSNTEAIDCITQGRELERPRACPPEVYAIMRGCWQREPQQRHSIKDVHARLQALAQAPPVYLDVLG

With `Cc1nnc(CNC(=O)c2nc(-c3ccccc3)c(NC(=O)N[C@@H]3c4cc(F)c(F)cc4C(C)(C)C[C@H]3O)cc2C)o1` (racemic) [Compound 41, rac-5-(3-((1R,2R)-6,7-difluoro-2-hydroxy-4,4-dimethyl-1,2,3,4-tetrahydronaphthalen-1-yl)ureido)-3-methyl-N-((5-methyl-1,3,4-oxadiazol-2-yl)methyl)-6-phenylpicolinamide] the IC50 was at most 50 nM.

`Cc1cc(NC(=O)N[C@@H]2c3ccccc3C(C)(C)C[C@H]2O)c(C2CCOCC2)nc1C(N)=O` (racemic) [Compound 27, rac-5-(3-((1R,2R)-2-hydroxy-4,4-dimethyl-1,2,3,4-tetrahydronaphthalen-1-yl)ureido)-3-methyl-6-(tetrahydro-2H-pyran-4-yl)picolinamide] was tested, and the IC50 was 50 to 1000 nM.

`Cc1cc(NC(=O)N[C@@H]2c3ccccc3C(C)(C)C[C@H]2O)c(-c2ccccc2)nc1-c1ccc(O)nc1` (racemic) [Compound 6, rac-1-(6′-hydroxy-3-methyl-6-phenyl-[2,3′-bipyridin]-5-yl)-3-((1R,2R)-2-hydroxy-4,4-dimethyl-1,2,3,4-tetrahydronaphthalen-1-yl)urea] showed an IC50 of at most 50 nM.

For `Cc1cc(NC(=O)N[C@@H]2c3ccccc3C(C)(C)C[C@H]2O)c(-c2ccccc2)nc1CO` [Compound 8, 1-((1R,2R)-2-hydroxy-4,4-dimethyl-1,2,3,4-tetrahydronaphthalen-1-yl)-3-(6-(hydroxymethyl)-5-methyl-2-phenylpyridin-3-yl)urea], the IC50 was at most 50 nM.

`Cc1cc(NC(=O)N[C@@H]2c3ccccc3C(C)(C)C[C@H]2O)c(C2CCOCC2)nc1-c1cnn(C)c1` (racemic) [Compound 29, rac-1-((1R,2R)-2-hydroxy-4,4-dimethyl-1,2,3,4-tetrahydronaphthalen-1-yl)-3-(5-methyl-6-(1-methyl-1H-pyrazol-4-yl)-2-(tetrahydro-2H-pyran-4-yl)pyridin-3-yl)urea] was tested, and the IC50 was at most 50 nM.

`Cc1ncc(-c2nc(-c3ccccc3)c(NC(=O)N[C@@H]3c4cc(F)c(F)cc4C(C)(C)C[C@H]3O)cc2C)s1` (racemic) [Compound 50, rac-1-((1R,2R)-6,7-difluoro-2-hydroxy-4,4-dimethyl-1,2,3,4-tetrahydronaphthalen-1-yl)-3-(5-methyl-6-(2-methylthiazol-5-yl)-2-phenylpyridin-3-yl)urea] showed an IC50 of 50 to 1000 nM.

Work on `Cc1cnc(C2CCOCC2)c(NC(=O)N[C@@H]2c3cc(F)c(F)cc3C(C)(C)C[C@H]2O)c1` (racemic) [Compound 57, rac-1-((1R,2R)-6,7-difluoro-2-hydroxy-4,4-dimethyl-1,2,3,4-tetrahydronaphthalen-1-yl)-3-(5-methyl-2-(tetrahydro-2H-pyran-4-yl)pyridin-3-yl)urea] yielded an IC50 of 50 to 1000 nM.

Work on `Cc1cc(NC(=O)N[C@@H]2c3cc(F)c(F)cc3C(C)(C)C[C@H]2O)c(-c2ccccc2)nc1-c1cnn(C)c1` (racemic) [Compound 51, rac-1-((1R,2R)-6,7-difluoro-2-hydroxy-4,4-dimethyl-1,2,3,4-tetrahydronaphthalen-1-yl)-3-(5-methyl-6-(1-methyl-1H-pyrazol-4-yl)-2-phenylpyridin-3-yl)urea] yielded an IC50 of at most 50 nM.

For `Cc1cc(NC(=O)N[C@@H]2c3cc(F)c(F)cc3C(C)(C)C[C@H]2O)c(-c2ccccc2)nc1-c1cccc(CO)c1` (racemic) [Compound 46, rac-1-((1R,2R)-6,7-difluoro-2-hydroxy-4,4-dimethyl-1,2,3,4-tetrahydronaphthalen-1-yl)-3-(6-(3-(hydroxymethyl)phenyl)-5-methyl-2-phenylpyridin-3-yl)urea], the IC50 was at most 50 nM.

In the case of `COCc1ccc2c(c1)[C@@H](NC(=O)Nc1cc(C)cnc1C1CCOCC1)[C@H](O)CC2(C)C` (racemic) [Compound 33, rac-1-((1R,2R)-2-hydroxy-7-(methoxymethyl)-4,4-dimethyl-1,2,3,4-tetrahydronaphthalen-1-yl)-3-(5-methyl-2-(tetrahydro-2H-pyran-4-yl)pyridin-3-yl)urea], the IC50 is reported as at most 50 nM.

Compound `Cc1ccnc(-c2ccccc2)c1NC(=O)N[C@@H]1c2cc(F)c(F)cc2C(C)(C)C[C@H]1O` (racemic) [Compound 38, rac-1-((1R,2R)-6,7-difluoro-2-hydroxy-4,4-dimethyl-1,2,3,4-tetrahydronaphthalen-1-yl)-3-(4-methyl-2-phenylpyridin-3-yl)urea] has an IC50 of 50 to 1000 nM.

`Cc1cc(NC(=O)N[C@@H]2c3cc(F)c(F)cc3C(C)(C)C[C@H]2O)c(-c2ccccc2)nc1-c1ccc(CO)nc1` (racemic) [Compound 55, rac-1-((1R,2R)-6,7-difluoro-2-hydroxy-4,4-dimethyl-1,2,3,4-tetrahydronaphthalen-1-yl)-3-(6′-(hydroxymethyl)-3-methyl-6-phenyl-[2,3′-bipyridin]-5-yl)urea] gave an IC50 of at most 50 nM.

`Cc1ncc(-c2nc(-c3ccccc3)c(NC(=O)N[C@@H]3c4cc(F)ccc4C(C)(C)C[C@H]3O)cc2C)cn1` (racemic) [Compound 34a] showed an IC50 of at most 50 nM.

`Cc1ncc(-c2nc(-c3ccccc3)c(NC(=O)N[C@@H]3c4ccccc4C(C)(C)C[C@H]3O)cc2C)cn1` (racemic) [Compound 3, rac-1-((1R,2R)-2-hydroxy-4,4-dimethyl-1,2,3,4-tetrahydronaphthalen-1-yl)-3-(5-methyl-6-(2-methylpyrimidin-5-yl)-2-phenylpyridin-3-yl)urea] showed an IC50 of at most 50 nM.

With `Cc1cc(NC(=O)N[C@@H]2c3ccccc3C(C)(C)C[C@H]2O)c(-c2ccccc2)nc1-c1cnc(C(F)(F)F)nc1` [Compound 15, 1-((1R,2R)-2-hydroxy-4,4-dimethyl-1,2,3,4-tetrahydronaphthalen-1-yl)-3-(5-methyl-2-phenyl-6-(2-(trifluoromethyl)pyrimidin-5-yl)pyridin-3-yl)urea] the IC50 was at most 50 nM.

For `Cc1ccc(NC(=O)N[C@@H]2c3cc(F)c(F)cc3C(C)(C)C[C@H]2O)c(-c2ccccc2)n1` (racemic) [Compound 39, rac-1-((1R,2R)-6,7-difluoro-2-hydroxy-4,4-dimethyl-1,2,3,4-tetrahydronaphthalen-1-yl)-3-(6-methyl-2-phenylpyridin-3-yl)urea], the IC50 was at most 50 nM.

Work on `CC1(C)C[C@@H](O)[C@H](NC(=O)Nc2cccnc2-c2ccccc2)c2cc(F)c(F)cc21` (racemic) [Compound 36, rac-1-((1R,2R)-6,7-difluoro-2-hydroxy-4,4-dimethyl-1,2,3,4-tetrahydronaphthalen-1-yl)-3-(2-phenylpyridin-3-yl)urea] yielded an IC50 of at most 50 nM.

`Cc1nnc(CNC(=O)c2nc(-c3ccccc3)c(NC(=O)N[C@@H]3c4cc(F)c(F)cc4C(C)(C)C[C@H]3O)cc2C)o1` (racemic) [Compound 41a] gave an IC50 of at most 50 nM.

Work on `Cc1cc(NC(=O)N[C@@H]2c3ccccc3C(C)(C)C[C@H]2O)c(-c2ccccc2)nc1-c1cnn(C)c1` (racemic) [Compound 4, rac-1-((1R,2R)-2-hydroxy-4,4-dimethyl-1,2,3,4-tetrahydronaphthalen-1-yl)-3-(5-methyl-6-(1-methyl-1H-pyrazol-4-yl)-2-phenylpyridin-3-yl)urea] yielded an IC50 of at most 50 nM.

In the case of `Cc1cc(NC(=O)N[C@@H]2c3cc(F)c(F)cc3C(C)(C)C[C@H]2O)c(C2CCOCC2)nc1-c1cn[nH]c1` (racemic) [Compound 61a], the IC50 is reported as 50 to 1000 nM.

With `Cc1cnc(-c2ccccc2)c(NC(=O)N[C@@H]2c3ccccc3C(C)(C)C[C@H]2O)c1` (racemic) [Compound 2, rac-1-((1R,2R)-2-hydroxy-4,4-dimethyl-1,2,3,4-tetrahydronaphthalen-1-yl)-3-(5-methyl-2-phenylpyridin-3-yl)urea] the IC50 was at most 50 nM.
